Reference: publication PMC4955148, “Identification and functional characterization of novel xylose transporters from the cell factories Aspergillus niger and Trichoderma reesei” (Biotechnology for Biofuels, 2016)

Tested on: T1, AnXltB
T1 construct: gene xltB; whole-cell uptake
Experiment: […]-sugar initial uptake ([…] s) in yeast, Michaelis-Menten fit
Type: cell-based, Aspergillus niger
Settings: labelled compound; transport into intact cells; 100 mM PBS pH 6.5, 30 °C; read-out: Xylose initial uptake kinetics / K m

Km: 15 ± 4.5 mM
SMILES: OC1OC[C@@H](O)[C@H](O)[C@H]1O (stereo partly shown) [xylose]
